The assay deals with female NOD mice. As to the kind of experiment: Plasma lipidomics in FKGK18- and PBS-T-treated NOD mice that developed T1D. The assay is classed as in vivo, mouse. As to conditions: treatment initiated at 10 days or 4 weeks of age. The method, then: FIGS. 11A-11I show a comparison of select plasma lipids in diabetic NOD mice. NOD mice were treated with PBS-Tor with FKGK18, starting at 10 days or 4 weeks of age, and sacrificed at the onset of diabetes. Plasma was prepared from these mice and processed for lipidomics analyses. The data (mean±SEM) represent pmol of each lipid species in 100 or 50 µL plasma fo LTC4 (FIG. 11A), 15-HETE (FIG. 11B), 5-HETE (FIG. 11C), PGD2 (FIG. 11D), AA (FIG. 11E), So1P/So (FIG. 11F), EET/DHET (FIG. 11G), resolving D2 (FIG. 11H), and DHA (FIG. 11I). (Statistical analyses: Students′ t-test. N=4/group.).
Next, to determine if a proinflammatory landscape persists until T1D onset, Applicants performed lipidomic analyses with plasma from FKGK18- and PBS-T-treated NOD (starting at 10 days). […] Furthermore, the ratio of So1P/So was higher in diabetic PBS-T-NOD, in comparison with nondiabetic PBS-T- or FKGK18-treated NOD (FIG. 6F). […]
Analysis of sphingolipids, eicosanoids, and fatty acids by ultra performance liquid chromatography-electrospray ionization-tandem mass spectrometry. […] Sphingolipids, eicosanoids, and fatty acids were analyzed via mass spectrometry using an AB Sciex Triple Quad 5500 Mass Spectrometer. […] The MΦ (2.75 × 10^6) were administered i.p. to 8-week-old female NOD, and diabetes incidence was recorded through weekly blood glucose monitoring.

Turning to `O=C(CCCCc1ccc2ccccc2c1)C(F)(F)F` [FKGK18], under “mice that developed T1D”, the “plasma PGD2 relative to PBS-T (d) groups” value is “decrease”. In addition, the “plasma lipids vs PBS-T in mice that developed T1D” value (sacrificed at onset of diabetes, all lipids except PGD2) is reported as “no differences”.

Source of the values: patent US20230263826A1, “Compositions and Methods for Treatment and Prevention of Type 1 Diabetes” (The UAB Research Foundation, priority 2021, published 2023).
